Experimental data from article PMC7334220, “Diamond Blackfan anemia is mediated by hyperactive Nemo-like kinase” (Nature Communications, 2020).
Values joined by “and” are separate entries in the source; they are usually repeats but may differ in a detail not shown here. Identical values can stand only once.

How the values were obtained:
[1] = molecular target: T1, NLK (Homo sapiens, UniProt Q9UBE8); assay: DiscoveRX kinase profile analysis of SD208, NLK; type: biochemical; conditions: kinase profiling, Supplementary Fig. 2a
T1 construct: NLK, p38, or ALK5 for in vitro kinase assays were immunopurified from Kp53A1 cells; endogenous in cells; immunoprecipitated with anti-NLK (Abcam AB97642)
T1 sequence (Q9UBE8 1-527): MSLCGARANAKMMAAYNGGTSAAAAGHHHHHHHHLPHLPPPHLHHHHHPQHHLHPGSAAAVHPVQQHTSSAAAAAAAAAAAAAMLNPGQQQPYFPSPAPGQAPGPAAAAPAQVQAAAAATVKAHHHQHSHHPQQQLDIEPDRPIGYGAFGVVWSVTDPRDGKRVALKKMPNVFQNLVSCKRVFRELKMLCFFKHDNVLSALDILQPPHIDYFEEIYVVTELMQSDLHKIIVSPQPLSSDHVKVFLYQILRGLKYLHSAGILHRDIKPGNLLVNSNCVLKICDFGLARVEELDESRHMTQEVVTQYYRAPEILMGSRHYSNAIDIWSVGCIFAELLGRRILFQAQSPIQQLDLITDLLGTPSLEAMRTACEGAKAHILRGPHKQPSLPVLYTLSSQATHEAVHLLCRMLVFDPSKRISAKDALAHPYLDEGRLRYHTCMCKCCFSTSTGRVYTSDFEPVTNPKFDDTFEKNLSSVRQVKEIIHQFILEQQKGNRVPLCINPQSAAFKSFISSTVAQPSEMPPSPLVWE
Method: Supplementary Fig. 2. SD208 and NLK siRNA are specific. (a) The top 22 hits from DiscoveRX kinase profile analysis of SD208. (b) Human cord blood CD34+ progenitors were transduced shRNA against luciferase (shLuc) or RPS19 (shRPS19) and differentiated in erythroid media in the presence […]
days. Cells were counted and assessed for cell surface expression of CD235. Effective inhibition of p38 activity was assessed by lysis of treated controls and Western blot analysis of pp38. (c) Cord blood CD34+ progenitors were transduced with shRNA against RPS19 and either non-targeting (NT) or 1 of 3 different shRNA sequences against NLK. After sorting, cells were differentiated for 12 days. Lysates were subjected to qRT-PCR to assess NLK expression (Upper) and the number of CD235+ erythroblasts was determined by flow cytometry and is expressed relative to erythroid expansion of control cells (Lower). (d) Kp53A1 cells were untransfected (Unt), transfected with a non-targeting sequence (NT), or siRNA against NLK (siNLK). Phosphorylation status of p38, JNK and ERK was determined by treating transfected Kp53A1 cells EPO prior to Western blot analysis for pp38, pJNK and pERK. Transfected cells were cultured for 48 hours prior to lysis. Lysates were subjected to SDS-PAGE and protein expression of the listed proteins was determined by Western blot analysis. […]

[2] = tested on: p38; assay: Reported p38 inhibition (literature / PubChem); type: biochemical; conditions: 850nM vs 440nM; rebuttal letter
From the text: But as p38 can phosphorylate NLK, Myb and Raptor in vitro, we performed a series of experiments that indicate NLK-associated p38 is not contributing to substrate phosphorylation. We determined the IC50 values of a panel of eight p38 inhibitors against p38 and NLK in our in vitro kinase assays. For comparison, reported IC50 values from bioassay results submitted to the National Center for Biotechnology Information PubChem Database were tabulated.

[3] = tested on: RPS19-insufficient Lin-Kit+ cells; assay: Erythroid differentiation (Ter119+) of Lin-Kit+ cells from tetracycline-inducible shRPS19 mice; type: cell-based, mouse; conditions: SD208 with doxycycline; 8 days; three mice; without SD208 24.3, 20.3, 18.5%; Fig. 8b
Method: Cells were counted and assessed for cell surface expression of CD235. b Lin-Kit^+ hematopoietic progenitors were obtained from three mouse embryos expressing tetracycline-inducible shRNA against RPS19 at day E14.5 or three untreated mice, and thee mature RPL11^+/+ or three mature RPL11^+/lox mice treated with tamoxifen for eight weeks. […] Values were expressed as a percentage relative to untreated controls. c, d Intracellular phosphorylation of NLK at […] was determined by capillary electrophoresis using the Peggy SueTM Automated Western blotting platform. […] After counting the total cell population, the ratio of CD235^+ erythroblasts was determined by flow cytometry and number of CD235^+ erythroblasts calculated. This was expressed as a percentage of the average number of erythroid cells present in untreated healthy controls. f NLK phosphorylation was assessed by capillary electrophoresis as above. Bars represent means ± SD with individual data points overlaid. […] Statistics: two-tailed Student's t test, significant *p < 0.05. Also see Supplementary Fig. 8. Source data are provided as a Source Data file. […] RPS19-insufficiency reduced Ter119^+ erythroblasts to 24.3, 20.3, and 18.5% of controls differentiated in the absence of doxycycline.

[4] = tested on: RPL11-insufficient Lin-Kit+ HSPCs; assay: Erythroid differentiation of Lin-Kit+ HSPCs from tamoxifen-treated RPL11+/lox mice; type: cell-based, mouse; conditions: SD208; 8 days; three RPL11+/lox mice; without SD208 31.2, 26.4, 18.6%; Fig. 8b
Method: Cells were counted and assessed for cell surface expression of CD235. b Lin-Kit^+ hematopoietic progenitors were obtained from three mouse embryos expressing tetracycline-inducible shRNA against RPS19 at day E14.5 or three untreated mice, and thee mature RPL11^+/+ or three mature RPL11^+/lox mice treated with tamoxifen for eight weeks. […] Values were expressed as a percentage relative to untreated controls. c, d Intracellular phosphorylation of NLK at […] was determined by capillary electrophoresis using the Peggy SueTM Automated Western blotting platform. […] After counting the total cell population, the ratio of CD235^+ erythroblasts was determined by flow cytometry and number of CD235^+ erythroblasts calculated. This was expressed as a percentage of the average number of erythroid cells present in untreated healthy controls. f NLK phosphorylation was assessed by capillary electrophoresis as above. Bars represent means ± SD with individual data points overlaid. […] Statistics: two-tailed Student's t test, significant *p < 0.05. Also see Supplementary Fig. 8. Source data are provided as a Source Data file. Three mature RPL11^+/lox mice were treated with tamoxifen for eight weeks to induce heterozygous deletion of RPL11. As controls, three different RPL11^+/+ littermates of the same mouse strain were treated with tamoxifen.

Fc1ccc(Cl)cc1-c1nc(Nc2ccncc2)c2nccnc2n1 [SD208]
inhibition at 10 µM [1]: 96.8%
reported p38 IC50 compared to observed NLK IC50 [2]: 2 fold
Ter119+ erythroblasts, % of controls differentiated without doxycycline [3]: 83.2% and 81.1% and 76.6%
erythropoiesis, % of controls [4]: 57.3% and 56.8% and 50.3%
